Data reported in US20240058251A1, “Composition for Oral Cavity” (SUNSTAR SUISSE SA, priority 2020, published 2024).

Tested on: Streptococcus oralis spp. tigurinus
Assay: S. oralis culture test (Alamar Blue fluorescence; proliferation rate relative to a control containing no sample solution)
Type: cell-based
Protocol: S. oralis was cultured in BHI medium (Brain Heart Infusion broth (manufactured by BD)). After the turbidity of the medium at a wavelength of 660 nm was measured, the culture solution was diluted with BHI medium until the turbidity was 0.1. The diluted medium was used as a bacterial solution. As S. oralis, Streptococcus oralis spp. tigurinus was used.
Sample solutions of Examples and Comparative Examples were prepared by dissolving an amino acid and a sugar in the BHI medium. The concentrations of the amino acid in the sample solutions were set at 0 mg/ml or 15 mg/ml and the concentrations of the sugar were set at 20 mg/ml.
To the wells of a 96-well plate, the bacterial solution (100 μl) and a sample solution (100 μl) were added. The 96-well plate was subjected to culturing performed at 37° C. in anaerobic conditions for 24 hours. After completion of the culture, the supernatant was removed and 110 μl of an Alamar Blue solution (manufactured by Invitrogen) diluted 11-fold with phosphate buffer saline (PBS), was added. Fluorescence intensity was measured at an excitation wavelength of 545 nm and a fluorescence wavelength of 590 nm. A relative value thereof to the fluorescence intensity of a control containing no sample solution was calculated as the proliferation rate of S. oralis. The proliferation rate calculated was evaluated based on the following evaluation criteria. The results are shown in Table 1. • A: 10 or more • B: 5 or more and less than 10 • C: less than 5 […]
The proliferation rate of S. oralis in the case in which galactose was used as the sugar and citrulline was used as the amino acid, was measured. The test method was the same as in Test 1. The concentrations of galactose and citrulline in sample solutions and the measurement results of proliferation rates are shown in Table 3. In Test 3, the concentrations of galactose in sample solutions were set at 0 mg/ml or 2 mg/ml and the concentrations of citrulline were set at 0.5 to 3.0 mg/ml.
The proliferation rate of S. oralis was measured in the case in which 2′-fucosyllactose was used as the sugar and arginine was used as the amino acid. The test method was the same as in Test 1. The concentrations of 2′-fucosyllactose and arginine in sample solutions and the measurement results of proliferation rates are shown in Table 4. […]

**Q.** NC(=O)NCCC[C@H](N)C(=O)O [Comparative Example 8, Citrulline] was tested. Which “Effect of promoting proliferation of S. oralis (in words)” value (“Effect” for short) (Test 3, citrulline 0.5 to 3.0 mg/ml, galactose 0 or 2 mg/ml) did it give?
**A.** Its value is “the effect of proliferating S. oralis was promoted but the level of the proliferation promotion effect decreased as the concentration of citrulline increased”.

**Q.** What about the Proliferation rate (Test 3, galactose 0 mg/ml, citrulline 0.5 mg/ml) of the same compound?
**A.** Its Proliferation rate is 3.8.

**Q.** And the Proliferation rate (Test 3, galactose 0 mg/ml, citrulline 1.0 mg/ml)?
**A.** Its Proliferation rate is 2.7.

**Q.** And the Proliferation rate (Test 3, galactose 0 mg/ml, citrulline 2.0 mg/ml)?
**A.** The Proliferation rate was 1.8.

**Q.** For N=C(N)NCCC[C@H](N)C(=O)O [Comparative Example 1, Arginine], which “Effect” value (Test 1) is on record?
**A.** The value was “not obtained”.

**Q.** What about the “Evaluation of proliferation rate” value (Test 1, sample solution in BHI medium: sugar 20 mg/ml, amino acid 0 or 15 mg/ml, 37° C., anaerobic, 24 hours) of the same compound?
**A.** The value was “C (less than 5)”.

**Q.** Which Proliferation rate (Test 4, 2′-fucosyllactose 1 mg/ml, arginine 0 mg/ml) does the source give for C[C@@H]1O[C@@H](O[C@H]2[C@H](O[C@H]3[C@H](O)[C@@H](O)C(O)O[C@@H]3CO)O[C@H](CO)[C@H](O)[C@@H]2O)[C@@H](O)[C@H](O)[C@@H]1O (some centres unmarked) [Comparative Example 9, 2′-Fucosyllactose] here?
**A.** The Proliferation rate was 1.0.

**Q.** What about the Proliferation rate (Test 4, 2′-fucosyllactose 2 mg/ml, arginine 0 mg/ml) of the same compound?
**A.** The Proliferation rate was 1.5.

**Q.** What about the Proliferation rate (Test 4, 2′-fucosyllactose 3 mg/ml, arginine 0 mg/ml) of the same compound?
**A.** Its Proliferation rate is 0.9.

**Q.** And the Proliferation rate (Test 4, 2′-fucosyllactose 4 mg/ml, arginine 0 mg/ml)?
**A.** The Proliferation rate was 0.6.

**Q.** And the “Effect” value (Test 4, 2′-fucosyllactose 1 to 4 mg/ml, arginine 0 or 1.5 mg/ml)?
**A.** The value was “scarcely observed”.
